Measurements taken from EP3628672A1 (priority 2018, dated 2020).
Read-outs that look alike come from different tables or passages of the source.

Columns and labels:
[1] = target: T1, purified LasB protein from P. aeruginosa (Pseudomonas aeruginosa, UniProt P14756); experiment: Fluorometric assay to determine Ki (Abz-Ala-Gly-Leu-Ala-p-Nitro-Benzyl-Amide substrate); assay type: biochemical
T1 construct: purchased Merck or Charles River Laboratories
Method in brief: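 Purified P. aeruginosa LasB (10–140 ng/ml) with 250 µM Abz-Ala-Gly-Leu-Ala-p-nitrobenzylamide in 50 mM Tris-HCl pH 7.4, 2.5 mM CaCl2, 0.01% Triton X100, 37 °C; hydrolysis fluorescence (Ex 340/Em 415 nm) followed over 30 min, inhibitor 0.0016–200 µM. Ki = IC50/(1+[S]/Km), Km 214 µM.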

LasB = target: T2, LasB (Pseudomonas aeruginosa, UniProt P14756); experiment: Elastin assay to determine % inhibition (Elastin Congo-Red, dialysed culture supernatant); assay type: biochemical, P. aeruginosa PAO1; conditions: read-out: Elastin hydrolysis % inhibition @ 50 / 25 µM inhibitor concentration
T2 construct: uses as source of enzyme dialysed supernatant from P. aeruginosa PAO1; endogenous in cells; host or cells: P. aeruginosa PAO1 culture supernatant, filtered and dialysed
T2 sequence (P14756 198-498): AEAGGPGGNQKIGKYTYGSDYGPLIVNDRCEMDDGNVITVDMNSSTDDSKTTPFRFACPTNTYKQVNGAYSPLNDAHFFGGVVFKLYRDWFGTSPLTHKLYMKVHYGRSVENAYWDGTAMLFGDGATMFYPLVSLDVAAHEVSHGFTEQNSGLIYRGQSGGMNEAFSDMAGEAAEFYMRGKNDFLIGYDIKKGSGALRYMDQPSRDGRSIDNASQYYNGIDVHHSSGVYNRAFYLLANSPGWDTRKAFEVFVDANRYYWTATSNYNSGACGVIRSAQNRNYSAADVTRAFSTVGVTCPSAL
Method in brief: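 Enzyme source was dialysed PAO1 culture supernatant (50 mM Tris-HCl pH 7.4, 2.5 mM CaCl2), mixed with Elastin Congo-Red and 0.01% Triton X-100. Compound was routinely 50 to 1.56 µM, incubated overnight at 37 °C with shaking. Dye release at OD495 gave % inhibition relative to DMSO and no-enzyme controls.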

T1 sequence (P14756 198-498): as above

| SMILES | Ki [1] [nM] | inhibition at 25 µM (LasB) [%] | Ki ([1]; Ki calculated from IC50, [S] = 250 µM, Km = 214 µM, 37°C, pH 7.4) [nM] |
| --- | --- | --- | --- |
| COc1cc(OCc2cccnc2)ccc1-c1csc(CNC(=O)C2(CC(=O)O)Cc3ccccc3C2)n1 [Example 78, 2-[2-[[4-[2-methoxy-4-(3-pyridylmethoxy)phenyl]thiazol-2-yl]methylcarbamoyl]indan-2-yl]acetic acid] | < 50 | > 75 | – |
| COc1cc(OCC(=O)N2CC[N+](C)(C)CC2)ccc1-c1csc(CNC(=O)C2(CC(=O)[O-])Cc3ccccc3C2)n1 [Example 79, 2-[2-[[4-[4-[2-(4,4-dimethylpiperazin-4-ium-1-yl)-2-oxo-ethoxy]-2-methoxy-phenyl]thiazol-2-yl]methylcarbamoyl]indan-2-yl]acetate] | 50 to 200 | 60 to 75 | – |
| COc1cc(OCCCN(C)C)ccc1-c1csc(CNC(=O)C2(CC(=O)O)Cc3cc(F)c(F)cc3C2)n1 [Example 80, 2-[2-[[4-[4-[3-(dimethylamino)propoxy]-2-methoxyphenyl]thiazol-2-yl]methylcarbamoyl]-5,6-difluoro-indan-2-yl]acetic acid] | 50 to 200 | 60 to 75 | – |
| COc1cc(OCCC[N+](C)(C)C)ccc1-c1csc(CNC(=O)C2(CC(=O)[O-])Cc3cc(F)c(F)cc3C2)n1 [Example 81, 2-[5,6-difluoro-2-[[4-[2-methoxy-4-[3-(trimethylammonio)propoxy]phenyl]thiazol-2-yl]methylcarbamoyl]indan-2-yl] acetate] | 50 to 200 | 60 to 75 | – |
| COc1cc(OCC(=O)N2CC[N+](C)(C)CC2)ccc1-c1csc(CNC(=O)C2(CC(=O)[O-])Cc3cc(F)c(F)cc3C2)n1 [Example 82, 2-[2-[[4-[4-[2-(4,4-dimethylpiperazin-4-ium-1-yl)-2-oxo-ethoxy]-2-methoxy-phenyl]thiazol-2-yl]methylcarbamoyl]-5,6-difluoro-indan-2-yl]acetate] | 50 to 200 | 60 to 75 | – |
| COc1cc(OCCN2CCN(C)C(=O)C2)ccc1-c1csc(CNC(=O)C2(CC(=O)O)Cc3ccccc3C2)n1 [Example 83, 2-[2-[[4-[2-methoxy-4-[2-(4-methyl-3-oxo-piperazin-1-yl)ethoxy]phenyl]thiazol-2-yl]methylcarbamoyl]indan-2-yl]acetic acid] | < 50 | > 75 | – |
| COc1cc(OCC[N+]2(C)CCN(C)C(=O)C2)ccc1-c1csc(CNC(=O)C2(CC(=O)[O-])Cc3ccccc3C2)n1 (stereo not shown) [Example 84, 2-[2-[[4-[4-[2-(1,4-dimethyl-3-oxo-piperazin-1-ium-1-yl)ethoxy]-2-methoxy-phenyl]thiazol-2-yl]methylcarbamoyl]indan-2-yl]acetate] | 50 to 200 | 60 to 75 | – |
| COc1cc(OCCc2nccn2C)ccc1-c1csc(CNC(=O)C2(CC(=O)O)Cc3ccccc3C2)n1 [Example 85, 2-[2-[[4-[2-methoxy-4-[2-(1-methylimidazol-2-yl)ethoxy]phenyl]thiazol-2-yl]methylcarbamoyl]indan-2-yl]acetic acid] | 50 to 200 | 60 to 75 | – |
| COc1cc(OCCc2n(C)cc[n+]2C)ccc1-c1csc(CNC(=O)C2(CC(=O)[O-])Cc3cc(F)c(F)cc3C2)n1 [Example 86, 2-[2-[[4-[4-[2-(1,3-dimethylimidazol-1-ium-2-yl)ethoxy]-2-methoxy-phenyl]thiazol-2-yl]methylcarbamoyl]-5,6-difluoro-indan-2-yl]acetate] | 50 to 200 | 60 to 75 | – |
| Cn1cc[n+](C)c1CCOc1ccc(-c2csc(CNC(=O)C3(CC(=O)[O-])Cc4ccccc4C3)n2)cc1 [Example 87, 2-[2-[[4-[4-[2-(1,3-dimethylimidazol-1-ium-2-yl)ethoxy]phenyl]thiazol-2-yl]methylcarbamoyl]indan-2-yl]acetate] | 50 to 200 | 10 to 60 | – |
| COc1cc(OCCN2CCN(C(C)=O)CC2)ccc1-c1csc(CNC(=O)C2(CC(=O)O)Cc3ccccc3C2)n1 [Example 88] | < 50 | > 75 | – |
| Cn1cc(-c2csc(CNC(=O)C3(CC(=O)O)Cc4ccccc4C3)n2)cn1 [Example 89, 2-[2-[[4-(1-methylpyrazol-4-yl)thiazol-2-yl]methylcarbamoyl]indan-2-yl]acetic acid] | 50 to 200 | 60 to 75 | – |
| Cn1ccc(-c2csc(CNC(=O)C3(CC(=O)O)Cc4ccccc4C3)n2)n1 [Example 90, 2-[2-[[4-(1-methylpyrazol-3-yl)thiazol-2-yl]methylcarbamoyl]indan-2-yl]acetic acid] | 200 to 10000 | 60 to 75 | – |
| Cc1c(-c2csc(CNC(=O)C3(CC(=O)O)Cc4ccccc4C3)n2)cnn1C [Example 91, 2-[2-[[4-(1,5-dimethylpyrazol-4-yl)thiazol-2-yl]methylcarbamoyl]indan-2-yl]acetic acid] | 50 to 200 | > 75 | – |
| Cn1nccc1-c1csc(CNC(=O)C2(CC(=O)O)Cc3ccccc3C2)n1 [Example 92, 2-[2-[[4-(2-methylpyrazol-3-yl)thiazol-2-yl]methylcarbamoyl]indan-2-yl]acetic acid] | 50 to 200 | 60 to 75 | – |
| Cc1nn(C)cc1-c1csc(CNC(=O)C2(CC(=O)O)Cc3ccccc3C2)n1 [Example 93, 2-[2-[[4-(1,3-dimethylpyrazol-4-yl)thiazol-2-yl]methylcarbamoyl]indan-2-yl]acetic acid] | 50 to 200 | 60 to 75 | – |
| O=C(O)CC1(C(=O)NCc2nc(-c3cncnc3)cs2)Cc2ccccc2C1 [Example 94, 2-[2-[(4-pyrimidin-5-ylthiazol-2-yl)methylcarbamoyl]indan-2-yl]acetic acid] | 200 to 10000 | 60 to 75 | – |
| O=C(O)CC1(C(=O)NCc2nc(-c3ccncc3)cs2)Cc2ccccc2C1 [Example 95, 2-[2-[[4-(4-pyridyl)thiazol-2-yl]methylcarbamoyl]indan-2-yl]acetic acid] | 200 to 10000 | 60 to 75 | – |
| O=C(O)CC1(C(=O)NCc2nc(-c3cnn(CCN4CCOCC4)c3)cs2)Cc2ccccc2C1 [Example 96, 2-[2-[[4-[1-(2-morpholinoethyl)pyrazol-4-yl]thiazol-2-yl]methylcarbamoyl]indan-2-yl]acetic acid] | 50 to 200 | 60 to 75 | – |
| Cc1cc(-c2csc(CNC(=O)C3(CC(=O)O)Cc4ccccc4C3)n2)n[nH]1 [Example 98, 2-[2-[[4-(5-methyl-1H-pyrazol-3-yl)thiazol-2-yl]methylcarbamoyl]indan-2-yl] acetic acid] | 200 to 10000 | 60 to 75 | – |
| O=C(O)CC1(C(=O)NCc2nc(-c3cnn(CCCN4CCOCC4)c3)cs2)Cc2ccccc2C1 [Example 99, 2-[2-[[4-[1-(3-morpholinopropyl)pyrazol-4-yl]thiazol-2-yl]methylcarbamoyl]indan-2-yl]acetic acid] | 50 to 200 | 60 to 75 | – |
| CN1CCN(C(=O)Cn2cc(-c3csc(CNC(=O)C4(CC(=O)O)Cc5ccccc5C4)n3)cn2)CC1 [Example 101] | – | 60 to 75 | 200 to 10000 |
| CN1CCC(n2cc(-c3csc(CNC(=O)C4(CC(=O)O)Cc5ccccc5C4)n3)cn2)CC1 [Example 102, 2-[2-[[4-[1-(1-methyl-4-piperidyl)pyrazol-4-yl]thiazol-2-yl]methylcarbamoyl]indan-2-yl]acetic acid] | 200 to 10000 | 60 to 75 | – |
| CN(C)CC(=O)N1CCC(n2cc(-c3csc(CNC(=O)C4(CC(=O)O)Cc5ccccc5C4)n3)cn2)CC1 [Example 103, 2-[2-[[4-[1-[1-[2-(dimethylamino)acetyl]-4-piperidyl]pyrazol-4-yl]thiazol-2-yl]methylcarbamoyl]indan-2-yl]acetic acid] | 200 to 10000 | 60 to 75 | – |
| CN1CCN(C(=O)N2CCC(n3cc(-c4csc(CNC(=O)C5(CC(=O)O)Cc6ccccc6C5)n4)cn3)CC2)CC1 [Example 104, 2-[2-[[4-[1-[1-(4-methylpiperazine-1-carbonyl)-4-piperidyl]pyrazol-4-yl]thiazol-2-yl]methylcarbamoyl]indan-2-yl]acetic acid] | 50 to 200 | 60 to 75 | – |
| CN1CCN(C(=O)CN2CCC(n3cc(-c4csc(CNC(=O)C5(CC(=O)O)Cc6ccccc6C5)n4)cn3)CC2)CC1 [Example 105, 2-[2-[[4-[1-[1-[2-(4-methylpiperazin-1-yl)-2-oxo-ethyl]-4-piperidyl]pyrazol-4-yl]thiazol-2-yl]methylcarbamoyl]indan-2-yl]acetic acid] | 50 to 200 | 60 to 75 | – |
| CC(=O)N1CCN(CCCn2cc(-c3csc(CNC(=O)C4(CC(=O)O)Cc5ccccc5C4)n3)cn2)CC1 [Example 106, 2-[2-[[4-[1-[3-(4-acetylpiperazin-1-yl)propyl]pyrazol-4-yl]thiazol-2-yl]methylcarbamoyl]indan-2-yl]acetic acid] | 50 to 200 | 60 to 75 | – |
| CN1CCN(CCCn2cc(-c3csc(CNC(=O)C4(CC(=O)O)Cc5ccccc5C4)n3)cn2)CC1 [Example 108, 2-[2-[[4-[1-[3-(4-methylpiperazin-1-yl)propyl]pyrazol-4-yl]thiazol-2-yl]methylcarbamoyl]indan-2-yl]acetic acid] | 50 to 200 | 60 to 75 | – |
| O=C(O)CC1(C(=O)NCc2nc(-c3cnn(CCCN4CCCOCC4)c3)cs2)Cc2ccccc2C1 [Example 109, 2-[2-[[4-[1-[3-(1,4-oxazepan-4-yl)propyl]pyrazol-4-yl]thiazol-2-yl]methylcarbamoyl]indan-2-yl]acetic acid] | 50 to 200 | 60 to 75 | – |
